Consider 16 compounds from ChEMBL document CHEMBL1201862, “PubChem BioAssay data set” (2004).

By EC50 is commonly meant the concentration giving half of the maximal effect. As usually defined, the AC50 is the concentration at which the activity in the assay is half-maximal.

Activity calls are given as the source filed them.

Luciferin 4-monooxygenase, sequence (P08659 whole entry): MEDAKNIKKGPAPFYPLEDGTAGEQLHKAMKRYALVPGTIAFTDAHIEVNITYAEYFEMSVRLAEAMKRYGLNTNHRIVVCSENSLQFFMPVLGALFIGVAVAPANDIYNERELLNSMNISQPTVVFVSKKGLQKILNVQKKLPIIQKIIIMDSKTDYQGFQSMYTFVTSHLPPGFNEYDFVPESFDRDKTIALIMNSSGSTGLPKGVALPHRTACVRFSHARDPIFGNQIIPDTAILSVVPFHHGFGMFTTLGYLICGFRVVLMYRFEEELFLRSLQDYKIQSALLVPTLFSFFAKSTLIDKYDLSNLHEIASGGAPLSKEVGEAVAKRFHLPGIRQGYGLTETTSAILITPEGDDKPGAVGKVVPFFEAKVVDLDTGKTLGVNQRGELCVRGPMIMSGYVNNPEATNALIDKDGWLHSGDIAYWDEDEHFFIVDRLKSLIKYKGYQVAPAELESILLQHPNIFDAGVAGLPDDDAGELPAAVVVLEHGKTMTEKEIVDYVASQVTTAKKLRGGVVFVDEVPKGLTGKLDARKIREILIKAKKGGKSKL

For the first test, the system named is Streptococcus sp. 'group A'. Nature of the test: Streptococcus pyogenes SK(-)GAS viability under kanamycin – luminescence, BacTiterGlo, confirmation, counter-screen for streptokinase expression inhibitor project, dose response (AID 1900). The class given is functional, organism-based.
Conditions: not given
Turning to `Oc1c(C(Nc2cccc(C(F)(F)F)c2)c2cccnc2)ccc2cccnc12` (stereo not given), the EC50 is 1.71 µM (active).

Another test has as its target Luciferin 4-monooxygenase (Photinus pyralis, UniProt P08659). The test can be described thus: inhibition of purified Photinus pyralis luciferase – biochemical, luminescence, dose response (AID 1891).
Conditions: not given
For the compound `CSc1nnc(N2C(=O)C(O)=C(C(=O)c3ccco3)C2c2cccc(Cl)c2)s1` (stereo not given), the 50% effective concentration (EC50) is > 112 µM (not active).

For another test, the target named is Cytochrome P450 2C19 (Homo sapiens, UniProt P33261). The test can be described thus: Cytochrome panel assay with activity outcomes. Panel member name: p450-cyp2c19 Compounds with AC50 equal or less than 10 uM are considered active. The format is functional. Conditions: read-out: AC50.
Cytochrome P450 2C19, sequence (P33261 whole entry): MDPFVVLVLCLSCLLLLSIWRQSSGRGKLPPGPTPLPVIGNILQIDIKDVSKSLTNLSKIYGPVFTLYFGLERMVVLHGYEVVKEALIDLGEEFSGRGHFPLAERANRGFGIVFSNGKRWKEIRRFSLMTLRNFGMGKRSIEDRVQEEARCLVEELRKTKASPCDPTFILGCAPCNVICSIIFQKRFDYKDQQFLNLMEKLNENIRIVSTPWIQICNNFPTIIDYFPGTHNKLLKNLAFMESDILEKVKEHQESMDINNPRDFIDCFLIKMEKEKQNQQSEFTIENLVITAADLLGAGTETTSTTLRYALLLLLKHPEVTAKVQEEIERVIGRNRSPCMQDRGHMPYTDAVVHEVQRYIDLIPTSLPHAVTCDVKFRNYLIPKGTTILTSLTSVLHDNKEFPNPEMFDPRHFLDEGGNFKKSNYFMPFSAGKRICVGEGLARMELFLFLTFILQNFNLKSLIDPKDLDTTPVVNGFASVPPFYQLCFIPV
Turning to `Cn1ccnc1SCC(=O)Nc1sccc1C#N`, the AC50 was 7.08 µM (inconclusive).

Regarding `COC(=O)c1cc2n(n1)CCN(Cc1ccccc1F)C2=O`, the AC50 is 5.01 µM (inconclusive).

The next test has as its target T1, RNA-binding protein pos-1 (Caenorhabditis elegans, UniProt G5EF15).
T1 sequence (G5EF15 whole entry): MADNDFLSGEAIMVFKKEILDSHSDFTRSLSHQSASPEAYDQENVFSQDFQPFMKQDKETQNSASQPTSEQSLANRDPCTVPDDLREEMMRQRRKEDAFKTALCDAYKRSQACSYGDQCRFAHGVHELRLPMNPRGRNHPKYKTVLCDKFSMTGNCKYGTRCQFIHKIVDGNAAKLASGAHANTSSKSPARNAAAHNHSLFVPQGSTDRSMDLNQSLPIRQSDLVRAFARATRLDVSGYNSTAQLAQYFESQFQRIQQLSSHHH
Nature of the test: disruptors of C. elegans POS-1 RNA interaction – biochemical, fluorescence polarization, dose response (AID 1964).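 Also: purified POS-1 fused to maltose binding protein made in E. coli; potency of compounds blocking POS-1 binding to fluorescent RNA.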
Conditions: not given
(In general: Fluorescence polarisation rises when a labelled molecule tumbles more slowly, as on binding a larger partner.)
For `O=C1CCC/C1=c1\s/c(=C\c2cccnc2)c(=O)n1-c1ccccc1`, the EC50 is recorded as > 300 µM (not active).

For the compound `CSc1nnc(N2C(=O)C(O)=C(C(=O)c3ccco3)C2c2cccc(Cl)c2)s1` (stereo not given), the EC50 was 31.3 µM (active).

For the compound `Cc1noc(C)c1S(=O)(=O)NC1CCN(Cc2ccccc2)CC1`, the EC50 was 49.2 µM (active).

`COc1cc2c(cc1C1C(C#N)=C(N)OC3=C1C(=O)CC(C)(C)C3)OCO2` (stereo not given): the EC50 is given as > 300 µM (not active).

As for `CCCCn1c(=O)[nH]c(=O)c2c1nc(-c1ccc(-c3ccccc3Br)o1)n2CCOC`, the EC50 is on record as > 300 µM (not active).

As for `N#CC1=C(N)OC2=C(C(=O)CCC2)[C@]12C(=O)N(CC(N)=O)c1ccccc12`, the EC50 is reported as > 300 µM (not active).

For `Cc1cccc(C(=O)NCCCNC(=O)c2cccc(C)c2)c1`, the EC50 is > 300 µM (not active).

Tested on in a further test: not listed separately
Nature of the test: Luminescence Cell-Based Dose Confirmation HTS to Identify Inhibitors of Platelet Dense Granule Release. [Related pubchem assays: 1663 (Primary HTS), 1678 (Summary of Project)].
Conditions: not given
The format is functional.
Consider `CSc1nnc(N2C(=O)C(O)=C(C(=O)c3ccco3)C2c2cccc(Cl)c2)s1` (stereo not given), for which the 50% effective concentration (EC50) is recorded as > 112 µM (not active).

Tested on in a further test: not listed separately
The test can be described thus: fluconazole-exposed Candida albicans growth modulators – fluorescence, retest, confirmation (AID 2467). The class given is functional, cell-based.
Conditions: not given
With `Oc1c(C(Nc2cccc(C(F)(F)F)c2)c2cccnc2)ccc2cccnc12` (stereo not given), the EC50 is listed as > 38 µM (not active).

For `Cc1sc(NC(=O)c2ccc(Br)s2)c(C(N)=O)c1C`, the EC50 is > 38 µM (not active).

In the case of `Cc1ccc(S(=O)(=O)C(C#N)c2nc3ccccc3nc2N2CCN(C)CC2)cc1C` (stereo not given), the EC50 was > 38 µM (not active).

`O=C1C2CCCN2C(c2ccccc2)N1c1ccccn1` (stereo not given): the concentration for a half-maximal effect (EC50) is > 38 µM (not active).

Regarding `COc1cccc(/C=N/NC(=O)c2cc(-c3cccn3C)[nH]n2)c1O`, the EC50 is 2.95 µM (active).

Tested on in the next test: not listed separately
Nature of the test: P. falciparum Dd2 growth inhibitors, dose response, SYBR Green, cherry-picked samples (AID 1159567). The format is functional, cell-based.
Conditions: not given
As to `CCCc1cn([C@H]2C[C@@H]3O[C@H](CO)CC[C@@H]3O[C@@H]2CCc2ccc(-c3ccc(OC)cc3)cc2)nn1`, the AC50 was 4.34 µM (active).

As to `Cc1cccc(S(=O)(=O)N2CCCCN3[C@H](C2)[C@@H](c2ccc(-c4cccnc4)cc2)[C@@H]3CO)c1`, the AC50 was 4.88 µM (active).

The target of a further test is Cytochrome P450 2D6 (Homo sapiens, UniProt P10635).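 Also: CYP2D6 member of a cytochrome P450 panel assay.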
Cytochrome P450 2D6, sequence (P10635 whole entry): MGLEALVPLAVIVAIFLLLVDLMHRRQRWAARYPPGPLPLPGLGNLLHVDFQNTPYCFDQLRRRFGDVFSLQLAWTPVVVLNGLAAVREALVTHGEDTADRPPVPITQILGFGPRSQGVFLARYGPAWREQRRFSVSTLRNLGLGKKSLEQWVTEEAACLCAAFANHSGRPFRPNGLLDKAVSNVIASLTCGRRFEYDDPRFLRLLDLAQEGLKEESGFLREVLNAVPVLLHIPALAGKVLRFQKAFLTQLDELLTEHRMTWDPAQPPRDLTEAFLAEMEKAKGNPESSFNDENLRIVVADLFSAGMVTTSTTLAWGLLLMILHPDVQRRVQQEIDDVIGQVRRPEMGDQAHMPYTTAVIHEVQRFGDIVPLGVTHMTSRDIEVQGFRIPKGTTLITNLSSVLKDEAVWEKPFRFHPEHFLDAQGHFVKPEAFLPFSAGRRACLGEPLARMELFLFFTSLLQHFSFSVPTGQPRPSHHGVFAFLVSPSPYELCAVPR
Assay: not given
Conditions: not given
`Cn1ccnc1SCC(=O)Nc1sccc1C#N`: the AC50 is 25.1 µM (inconclusive).

For the next test, the target named is T2, Zinc finger protein mex-5 (Caenorhabditis elegans, UniProt Q9XUB2).
T2 sequence (Q9XUB2 whole entry): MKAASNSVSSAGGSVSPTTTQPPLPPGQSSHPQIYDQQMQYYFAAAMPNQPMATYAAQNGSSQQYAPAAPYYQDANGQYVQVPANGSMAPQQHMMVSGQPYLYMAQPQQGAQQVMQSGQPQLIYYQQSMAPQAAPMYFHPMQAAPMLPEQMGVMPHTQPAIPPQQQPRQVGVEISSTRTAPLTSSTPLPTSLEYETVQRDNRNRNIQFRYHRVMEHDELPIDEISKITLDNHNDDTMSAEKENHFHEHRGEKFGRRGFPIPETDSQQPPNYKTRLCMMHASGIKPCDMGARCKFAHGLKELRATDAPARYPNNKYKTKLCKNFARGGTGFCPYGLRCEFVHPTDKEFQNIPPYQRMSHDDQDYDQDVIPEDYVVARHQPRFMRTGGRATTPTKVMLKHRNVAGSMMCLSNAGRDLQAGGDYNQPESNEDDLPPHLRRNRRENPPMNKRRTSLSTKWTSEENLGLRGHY
Nature of the test: potency of MEX-5 RNA-binding blockers – biochemical, C. elegans, fluorescence polarization, dose response (AID 1960).
Conditions: not given
Regarding `O=C1CCC/C1=c1\s/c(=C\c2cccnc2)c(=O)n1-c1ccccc1`, the half-maximal effective concentration (EC50) was 42 µM (active).

Turning to `CSc1nnc(N2C(=O)C(O)=C(C(=O)c3ccco3)C2c2cccc(Cl)c2)s1` (stereo not given), the EC50 is 14.3 µM (active).

As to `Cc1noc(C)c1S(=O)(=O)NC1CCN(Cc2ccccc2)CC1`, the EC50 is 35.3 µM (active).

As for `COc1cc2c(cc1C1C(C#N)=C(N)OC3=C1C(=O)CC(C)(C)C3)OCO2` (stereo not given), the EC50 was > 300 µM (not active).

For the compound `CCCCn1c(=O)[nH]c(=O)c2c1nc(-c1ccc(-c3ccccc3Br)o1)n2CCOC`, the EC50 is reported as > 300 µM (not active).

As for `N#CC1=C(N)OC2=C(C(=O)CCC2)[C@]12C(=O)N(CC(N)=O)c1ccccc12`, the EC50 is > 300 µM (not active).

As for `Cc1cccc(C(=O)NCCCNC(=O)c2cccc(C)c2)c1`, the EC50 was > 300 µM (not active).

Another test has as its target T3, Streptokinase A (Streptococcus pyogenes serotype M1, UniProt P10520).
T3 sequence (P10520 whole entry): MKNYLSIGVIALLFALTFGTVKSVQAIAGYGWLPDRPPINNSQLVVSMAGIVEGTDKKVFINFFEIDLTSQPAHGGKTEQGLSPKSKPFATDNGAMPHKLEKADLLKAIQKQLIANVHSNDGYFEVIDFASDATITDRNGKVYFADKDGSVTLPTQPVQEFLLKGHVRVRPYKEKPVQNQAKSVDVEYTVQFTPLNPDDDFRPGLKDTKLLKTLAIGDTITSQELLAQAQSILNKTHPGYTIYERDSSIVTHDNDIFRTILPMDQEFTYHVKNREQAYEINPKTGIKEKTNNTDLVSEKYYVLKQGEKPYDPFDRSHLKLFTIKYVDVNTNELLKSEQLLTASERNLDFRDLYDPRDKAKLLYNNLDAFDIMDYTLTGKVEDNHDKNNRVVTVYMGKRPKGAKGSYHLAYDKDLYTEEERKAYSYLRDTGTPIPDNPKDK
Nature of the test: viability-normalized secreted streptokinase activity reduction – plasminogen activation absorbance, OD405, dose response (AID 1914).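 Also: secreted streptokinase activity via plasminogen activation per viability signal from cell pellet.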 The format is functional, Streptococcus pyogenes M1 GAS.
Conditions: not given
On to `Oc1c(C(Nc2cccc(C(F)(F)F)c2)c2cccnc2)ccc2cccnc12` (stereo not given), for which the EC50 is listed as > 150 µM (not active).

The subject of a further test is Streptococcus. Nature of the test: GAS UMAA2166 growth inhibition – luminescence, BacTiterGlo, counter-screen for streptokinase expression inhibitor project, dose response (AID 1915).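 Also: potency for reduction of bacterial viability or growth.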
Conditions: not given
The format is functional, organism-based. (The purpose of a counterscreen is to sort out artefacts and off-target activity.)
In the case of `Oc1c(C(Nc2cccc(C(F)(F)F)c2)c2cccnc2)ccc2cccnc12` (stereo not given), the concentration giving a half-maximal response (EC50) was 15.6 µM (active).

A further test concerns the target T4, Cytochrome P450 1A2 (Homo sapiens, UniProt P05177).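 Also: PubChem cytochrome P450 panel assay, CYP1A2 panel member.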
T4 sequence (P05177 whole entry): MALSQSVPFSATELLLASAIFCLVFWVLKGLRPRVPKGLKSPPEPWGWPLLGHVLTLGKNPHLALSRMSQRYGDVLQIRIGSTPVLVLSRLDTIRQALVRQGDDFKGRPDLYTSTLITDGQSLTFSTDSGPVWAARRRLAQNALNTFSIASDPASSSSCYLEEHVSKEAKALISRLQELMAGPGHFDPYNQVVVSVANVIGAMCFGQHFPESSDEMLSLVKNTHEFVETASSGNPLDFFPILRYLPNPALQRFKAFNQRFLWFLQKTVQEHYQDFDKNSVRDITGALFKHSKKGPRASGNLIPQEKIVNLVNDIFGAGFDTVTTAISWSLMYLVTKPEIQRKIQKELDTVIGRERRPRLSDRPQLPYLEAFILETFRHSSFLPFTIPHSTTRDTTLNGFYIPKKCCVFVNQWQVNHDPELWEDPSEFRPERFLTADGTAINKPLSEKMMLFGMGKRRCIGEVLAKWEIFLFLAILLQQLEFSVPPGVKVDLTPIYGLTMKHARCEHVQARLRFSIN
Assay: not given
Conditions: not given
As to `COC(=O)c1cc2n(n1)CCN(Cc1ccccc1F)C2=O`, the AC50 was 15.8 µM (inconclusive).

Tested on in another test: not listed separately
The test can be described thus: NIH-3T3 fibroblast cytotoxicity, dose response, cytotoxicity control, cell-based, fluorescence, Alamar Blue, secondary assay (AID 2327).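 Also: NIH-3T3 mouse fibroblasts cultured with fluconazole at 8 µg/mL.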
Conditions: not given
The class given is functional. (Resazurin is reduced to fluorescent resorufin, in cell work by metabolically active cells.)
On to `Oc1c(C(Nc2cccc(C(F)(F)F)c2)c2cccnc2)ccc2cccnc12` (stereo not given), for which the EC50 is > 150 µM (inactive).

With `Cc1sc(NC(=O)c2ccc(Br)s2)c(C(N)=O)c1C`, the EC50 is > 150 µM (inactive).

For `Cc1ccc(S(=O)(=O)C(C#N)c2nc3ccccc3nc2N2CCN(C)CC2)cc1C` (stereo not given), the EC50 is > 150 µM (inactive).

On to `O=C1C2CCCN2C(c2ccccc2)N1c1ccccn1` (stereo not given), for which the EC50 is > 160 µM (inactive).

With `COc1cccc(/C=N/NC(=O)c2cc(-c3cccn3C)[nH]n2)c1O`, the EC50 is 23.5 µM (inconclusive).
